Source: US6441029B1, “Method of suppressing tumor growth with combinations of isoprenoids and statins” (Wisconsin Alumni Research Foundation, priority 1997, dated 2002)
Several values for one entry are separate records, joined by “and”; a condition that tells them apart may be missing. Equal values may be shown once.

Legend:
[1] = up to 80 mg/d, five-year follow-up of 745 patients (14 observed, 21 predicted); cited from earlier work
[2] = cited from earlier work
[3] = test system: implanted murine melanoma B16F10 tumors; details: 50 mg/kg administered ip on alternate days; cited from earlier work
[4] = test system: murine melanoma B16/F10 cells; test: In vitro growth assays of lovastatin, β-ionone and γ-tocotrienol alone and combined (Table 5); assay type: cell-based

CC[C@H](C)C(=O)O[C@H]1C[C@@H](C)C=C2C=C[C@H](C)[C@H](CC[C@@H]3C[C@@H](O)CC(=O)O3)[C@H]21 [Lovastatin, [1S[1a(R),3α,7β,8β(2S,4S),8aβ]]-1,2,3,7,8,8a-hexahydro-3,7-dimethyl-8-[2-(tetrahydro-4-hydroxy-6-oxo-2H-pyran-2-yl)ethyl]-1-maphthalenyl-2-methylbutanoate, reference compound]
reduction in cancer incidence [1]: 33%
dose level at which the incidence and severity of toxicity increased markedly ([2]; Phase I, 7-day courses given monthly, doses 2 to 45 mg/kg): 25 mg/kg
total episodes of toxicity ([2]; sixty of 88 patients): 128 episodes
growth of implanted murine melanoma B16F10 tumors [3]: suppressed
Growth ([4]; 1.5 μmol/L): 71 % of Control
decrease in cell growth ([4]; 2 μM): 50%
Growth ([4]; 2 μmol/L): 50 % of Control and 60 % of Control
Growth ([4]; 2 μmol/L, listed as lovastatin): 50 % of Control
Growth ([4]; 3 μmol/L): 53 % of Control
growth rate relative to controls ([4]; 1.9±0.3 μmol/l, protocol of He, et al.): 61.4±4.6 % the rate of controls
